According to paper PMC11983575, “Study on the synthesis and biological activity of kojic acid triazol thiosemicarbazide Schiff base derivatives” (Journal of Enzyme Inhibition and Medicinal Chemistry, 2025):

Tests used:
mushroom tyrosinase = mushroom tyrosinase (Agaricus bisporus, UniProt C7FF04); assay: Tyrosinase kinetic analysis (Lineweaver-Burk plots); format: biochemical
Method: To study the inhibition type of kojic acid-triazole derivatives, the investigation of inhibitory type of selected compound 6w on mushroom tyrosinase was carried out according to reported protocol. Compound 6w was used at the concentrations of […], respectively. Substrate L-DOPA concentration was between 500 µM and 1000 µM in the process of all kinetic study. Pre-incubation time and measurement time were the same as described in mushroom tyrosinase inhibition assay procedure. Lineweaver–Burk’s plots of inverse of velocities (1/V) versus inverse of substrate concentration 1/[S] µM^−1 were used to determine the type of enzyme inhibition.
Among the assessed kojic acid triazol thiosemicarbazide Schiff base derivatives, compound 6w expressed better tyrosinase inhibitory activity than the other compounds, in order to further explore the inhibition mechanism, the inhibitory type of the compound 6w on mushroom tyrosinase was decided by the Lineweaver–Burk double reciprocal plots. The Lineweaver–Burk plots were obtained by different concentrations of the compound 6w and the substrate (Figure 2(A)). The plots of 1/V versus 1/[S] gave a family of straight lines with different slopes. […] All of the straight lines intersected at a point in the second quadrant. […] The inhibition constant (Ki) of the compound was obtained by a plot of the slope versus the concentrations of the compound 6w, Kis of the compound was obtained by a plot of vertical intercept (1/Vm) versus the concentrations of the compound 6w, the results were shown in Figure 2(B,C). […] Compound 6w has a better binding with free enzyme.
Figure 2. Kinetic inhibition measurement of compound 6w. […] (A) The concentrations of compound 6w in the figure were 0, 0.5 μM, 1 μM, and 2 μM, respectively. (B) The secondary replot indicates the intercept versus the concentrations of compound 6w to define the inhibition constant Kis. (C) The secondary replot indicates the slope versus the concentrations of compound 6w to define the inhibition constant Ki.

[1] = DPPH free radical scavenging activity assay; settings: DPPH 150 μM, 30 min, 517 nm; read-out: DPPH/IC50 (μM) ± SD
Method: The anti-oxidation effect on DPPH radical was determined by a slightly modified version of a previously described DPPH radical scavenging assay. Reaction mixtures consisted of 100 μl of DPPH (150 μM), 20 μl of increasing concentration of test compounds and the volume was adjusted to 200 μl in each well with DMSO. The assay solution was then incubated at room temperature (25 °C) for 30 min in the dark. After the incubation, absorbance at 517 nm was measured by using UV-2600 spectrophotometer. The experiments were undertaken in triplicate. DMSO was used as a control. Ascorbic acid was used as antioxidant standard for comparison of the activity. The calculation of DPPH radical scavenging activity was followed by this formula: DPPH radical scavenging activity %=absorbance of standard−absorbance of sample/Absorbance of standard×100

[2] = ABTS radical cation scavenging activity assay; settings: 734 nm; read-out: ABTS+/IC50 (μM) ± SD
Method: ABTS free radical scavenging activity was performed according to the procedure described by Zhang et al.[40] Test solution of ABTS decolourisation assay was prepared by mixing 2.45 mM potassium persulfate and 7 mM ABTS at 8:12 volume/volume ratio. The working solution was kept in the dark at room temperature for 12–18 h. Before ABTS radical scavenging test, the ABTS test solution was diluted with DMSO to absorbance of 0.7 (±0.02) at 734 nm. One millilitre of diluted ABTS test solution was added to 10 μl of DMSO or test sample. After initial mixing, the working solution was kept in the dark at room temperature for 2–6 min, and the absorbance was measured at 734 nm. This test was carried out in triplicate. DMSO was used as a control. Ascorbic acid was used as antioxidant standard for comparison of the activity. The absorbance of test samples was calculated by the following formula. ABTS scavenging ability %=absorbance of standard−absorbance of sample/absorbance of standard×100.

mushroom tyrosinase, sequence (C7FF04 1-392): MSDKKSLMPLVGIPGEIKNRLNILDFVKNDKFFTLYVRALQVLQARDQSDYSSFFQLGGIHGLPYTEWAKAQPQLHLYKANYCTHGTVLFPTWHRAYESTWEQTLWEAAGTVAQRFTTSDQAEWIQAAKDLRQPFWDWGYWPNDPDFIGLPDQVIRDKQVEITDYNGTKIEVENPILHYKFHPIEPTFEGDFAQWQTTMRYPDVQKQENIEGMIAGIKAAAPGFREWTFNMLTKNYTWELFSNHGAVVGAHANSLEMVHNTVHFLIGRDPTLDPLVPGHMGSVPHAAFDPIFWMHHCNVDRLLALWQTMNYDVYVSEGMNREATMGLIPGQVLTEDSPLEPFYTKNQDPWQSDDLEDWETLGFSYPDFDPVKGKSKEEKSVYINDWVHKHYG

Substance: 2-(1-(4-((1-((5-Hydroxy-4-oxo-4H-pyran-2-yl)methyl)-1H-1,2,3-triazol-5-yl)methoxy)phenyl)ethylidene)hydrazinecarbothioamide [Compound 6w]
- inhibition type (mushroom tyrosinase; Lineweaver-Burk double reciprocal plots): mixed type inhibitor
- Ki (mushroom tyrosinase; from plot of slope versus concentration of 6w, free enzyme, read-out: inhibition constant Ki): 0.0003 µM
- inhibition constant Kis (mushroom tyrosinase; from plot of vertical intercept (1/Vm) versus concentration of 6w): 0.1997 µM
- IC50 [1]: 14.44 ± 0.077 µM
- IC50 [2]: 3.03 ± 0.009 µM
